{"source": "patent US5212201A", "about": "“Xanthine oxidase inhibitor” (priority 1989, dated 1993)", "key": {"[1]": {"biological_target": "xanthine oxidase (Bos taurus, UniProt P80457)", "sequence (P80457 whole entry)": "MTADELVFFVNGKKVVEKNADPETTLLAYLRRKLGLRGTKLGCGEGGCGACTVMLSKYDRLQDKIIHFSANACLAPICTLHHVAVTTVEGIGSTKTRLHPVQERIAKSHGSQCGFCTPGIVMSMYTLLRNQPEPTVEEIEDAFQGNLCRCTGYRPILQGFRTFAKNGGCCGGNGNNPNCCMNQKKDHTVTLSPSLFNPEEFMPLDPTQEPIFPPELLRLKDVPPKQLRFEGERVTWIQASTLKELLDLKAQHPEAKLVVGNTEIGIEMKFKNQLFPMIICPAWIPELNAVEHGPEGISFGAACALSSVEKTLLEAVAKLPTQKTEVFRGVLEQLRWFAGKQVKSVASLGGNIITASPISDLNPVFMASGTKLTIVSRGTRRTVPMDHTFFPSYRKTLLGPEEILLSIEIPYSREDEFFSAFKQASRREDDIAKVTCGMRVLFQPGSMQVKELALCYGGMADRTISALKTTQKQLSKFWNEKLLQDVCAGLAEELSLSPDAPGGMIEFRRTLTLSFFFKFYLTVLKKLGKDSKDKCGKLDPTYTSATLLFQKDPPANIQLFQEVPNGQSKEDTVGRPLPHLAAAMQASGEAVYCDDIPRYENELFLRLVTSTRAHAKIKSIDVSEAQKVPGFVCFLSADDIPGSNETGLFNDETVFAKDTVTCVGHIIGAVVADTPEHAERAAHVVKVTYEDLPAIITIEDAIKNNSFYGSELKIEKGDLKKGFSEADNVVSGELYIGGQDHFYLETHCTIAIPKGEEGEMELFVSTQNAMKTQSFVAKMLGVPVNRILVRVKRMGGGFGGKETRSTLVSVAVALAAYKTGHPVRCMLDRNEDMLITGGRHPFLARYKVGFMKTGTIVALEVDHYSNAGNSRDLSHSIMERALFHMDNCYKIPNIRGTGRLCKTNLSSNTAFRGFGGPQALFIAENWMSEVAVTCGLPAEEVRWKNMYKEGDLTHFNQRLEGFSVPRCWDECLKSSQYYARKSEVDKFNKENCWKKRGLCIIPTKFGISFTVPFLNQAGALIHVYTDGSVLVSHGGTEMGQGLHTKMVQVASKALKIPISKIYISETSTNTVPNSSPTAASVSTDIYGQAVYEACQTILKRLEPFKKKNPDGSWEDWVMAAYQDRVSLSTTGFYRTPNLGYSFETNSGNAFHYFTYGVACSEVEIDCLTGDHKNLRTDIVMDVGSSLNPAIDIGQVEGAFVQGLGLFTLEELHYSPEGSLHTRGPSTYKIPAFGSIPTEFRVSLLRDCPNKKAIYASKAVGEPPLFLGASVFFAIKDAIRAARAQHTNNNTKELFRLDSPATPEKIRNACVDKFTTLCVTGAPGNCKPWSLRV", "experiment": "xanthine oxidase inhibitory activity (absorbance at 290 nm, xanthine substrate)", "type": "biochemical", "conditions": "for Relative intensity: relative to 1.00 (XOI-A and allopurinol), from concentration for 50% inhibitory rate; for activity compared with known xanthine oxidase inhibitors allopurinol, luteolin / activity compared with quercetin: as seen from Table 1; for Total activity: purification from Perilla frutescens (3.73 kg fresh weight); for Total activity / Specific activity: 1 U = activity required for inhibiting 50% of xanthine oxidase; for Specific activity: purification from Perilla frutescens", "procedure": "This xanthine oxidase inhibitory activity can be determined, for example, as follows:\nEnzyme solution: An enzyme solution is prepared by dissolving 150 μl of xanthine oxidase (15.2 units/ml) in 10 ml of 1/15 M phosphate buffer (pH 7.5).\nSubstrate solution: A substrate solution is prepared by heating 22.8 mg of xanthine in 1 liter of water to dissolve it.\nDetermination: 0.1 ml of the enzyme solution and 2.9 ml of phosphate buffer (the same as that described above) are admixed with 1.0 ml of the sample solution and the mixture is incubated at 37° C. for 10 minutes.\nThen, 1 ml of the substrate solution preincubated at 37° C. is added to this reaction mixture and, after reaction for 30 minutes, an absorbance at 290 nm (D1) is measured.\nSeparately, an absorbance at 290 nm (D2) of a reaction mixture obtained by the similar reaction procedure using a heat inactivated enzyme, an absorbance (D3) without addition of the sample solution, and absorbance (D4) of a reaction mixture obtained by using a heat-inactivated enzyme without addition of the sample solution are measured. By using the values obtained by these measurements, the inhibitory rate of xanthine oxidase is calculated by using the following equation:\nInhibitory Rate (%)={1-(D1 -D2)/(D3 -D4 }×100\nIn Table 2, 1 U represents the activity required for inhibiting 50% of xanthine oxidase."}, "[2]": {"experiment": "solubility in solvents", "type": "physicochemical"}, "[3]": {"conditions": "xanthine oxidase, pH 7.5, 37° C., reaction for 30 minutes, read-out: Concentration for 50% inhibitory rate (converted)"}}, "note": "Where two headings read alike, the source gives them in different places."}
{"compound": "O=c1cc(-c2ccc(O)c(O)c2)oc2cc(O)cc(O)c12", "note": "[Luteolin, luteolin, reference compound]", "values": [{"measurement": "IC50", "setting": "[1]", "result": 384, "unit": "nM"}, {"measurement": "Relative intensity", "setting": "[1]", "result": 0.19}]}
{"compound": "O=C(/C=C/c1ccc(O)c(O)c1)O/C=C\\c1ccc(O)c(O)c1", "note": "[XOI-A, (Z,E)-2-(3,4-dihydroxyphenyl)ethenylester of 3-(3,4-dihydroxyphenyl)-2-propenoic acid]", "values": [{"measurement": "activity compared with known xanthine oxidase inhibitors allopurinol, luteolin", "setting": "[1]", "result": "comparable to that of allopurinol"}, {"measurement": "activity compared with quercetin", "setting": "[1]", "result": "superior to that of quercetin"}, {"measurement": "Total activity", "setting": "[1]", "result": "1.96 × 10^6 (U)"}, {"measurement": "Specific activity", "setting": "[1]", "result": 46600, "unit": "μ/mg"}, {"measurement": "Specific activity, figure in parentheses (relative to ethanol extract = 1)", "setting": "[1]; purification step", "result": 222}, {"measurement": "Total activity, figure in parentheses (relative to ethanol extract = 100)", "setting": "[1]; purification step, ethanol extract = 100", "result": 6}, {"measurement": "IC50", "setting": "[1]; [3]", "result": 66.8, "unit": "nM"}, {"measurement": "solubility in methanol, propanol, acetone, ethyl acetate or acetonitrile", "setting": "[2]", "result": "readily soluble"}, {"measurement": "solubility in water, chloroform or hexane", "setting": "[2]", "result": "slightly soluble"}]}
{"compound": "O=C(/C=C/c1ccc(O)c(O)c1)O/C=C\\c1cc(O)cc(O)c1", "note": "[XOI-B, (Z,E)-2-(3,5-dihydroxyphenyl)ethenylester of 3-(3,4-dihydroxyphenyl)-2-propenoic acid]", "values": [{"measurement": "activity compared with known xanthine oxidase inhibitors allopurinol, luteolin", "setting": "[1]", "result": "almost the same as that of luteolin"}, {"measurement": "activity compared with quercetin", "setting": "[1]", "result": "superior to that of quercetin"}, {"measurement": "Total activity", "setting": "[1]", "result": "0.09 × 10^6 (U)"}, {"measurement": "Specific activity", "setting": "[1]", "result": 8040, "unit": "μ/mg"}, {"measurement": "Specific activity, figure in parentheses (relative to ethanol extract = 1)", "setting": "[1]; purification step", "result": 38}, {"measurement": "Relative intensity", "setting": "[1]", "result": 0.17}, {"measurement": "IC50", "setting": "[1]; [3]", "result": 395, "unit": "nM"}, {"measurement": "solubility in methanol, propanol, acetone, ethyl acetate or acetonitrile", "setting": "[2]", "result": "readily soluble"}, {"measurement": "solubility in water, chloroform or hexane", "setting": "[2]", "result": "slightly soluble"}]}
